Source: PubChem BioAssay AID330 (DTP/NCI, 2004)
“And” between values parts separate entries of the source, which are not always exact repeats. Equal entries are not always repeated. Toxic doses and inconclusive results are not listed.

Test system: P388 leukemia ip, CD2F1 mice, survival T/C
Experiment: NCI In Vivo Anticancer Drug Screen. Data for tumor model P388 Leukemia (intraperitoneal) in CD2F1 (CDF1) mice
Settings: endpoint: median survival time, higher = longer survival
Outline: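 Mice carrying the transplanted tumor received test compound or vehicle. Survival was recorded in each group, and the value is the treated-group measurement divided by that of the vehicle-treated control group.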

[1] = dose: 50.0 mg/kg/injection, schedule: Q01DX005 (ip), vehicle: saline
[2] = dose: 100.0 mg/kg/injection, schedule: Q01DX005 (ip), vehicle: saline
[3] = dose: 50.0 mg/kg/injection, schedule: Q01DX009 (ip), vehicle: saline
[4] = dose: 100.0 mg/kg/injection, schedule: Q01DX009 (ip), vehicle: saline
[5] = dose: 60.0 mg/kg/injection, schedule: Q01DX005 (ip), vehicle: saline with Tween-80
[6] = dose: 120.0 mg/kg/injection, schedule: Q01DX005 (ip), vehicle: saline with Tween-80
[7] = dose: 50.0 mg/kg/injection, schedule: Q01DX005 (ip), vehicle: Klucel (hydroxypropylcellulose) (HPC)
[8] = dose: 100.0 mg/kg/injection, schedule: Q01DX005 (ip), vehicle: Klucel (hydroxypropylcellulose) (HPC)
[9] = dose: 200.0 mg/kg/injection, schedule: Q01DX005 (ip), vehicle: Klucel (hydroxypropylcellulose) (HPC)
[10] = dose: 200.0 mg/kg/injection, schedule: Q01DX009 (ip), vehicle: saline

`O=[N+]([O-])c1ccc(N2CCN(Cc3ccccc3)CC2)c2c1no[n+]2[O-]` was tested, and the T/C (dose: 37.5 mg/kg/injection, schedule: Q04DX003 (ip), vehicle: saline) was 100 % of control, the T/C (dose: 37.5 mg/kg/injection, schedule: Q04DX003 (ip), vehicle: suspension in saline) was 104 % of control and the T/C (dose: 75.0 mg/kg/injection, schedule: Q04DX003 (ip), vehicle: saline) was 97 % of control. The T/C (dose: 75.0 mg/kg/injection, schedule: Q04DX003 (ip), vehicle: suspension in saline) was 120 % of control, the T/C (dose: 150.0 mg/kg/injection, schedule: Q04DX003 (ip), vehicle: saline) was 100 % of control and the T/C (dose: 150.0 mg/kg/injection, schedule: Q04DX003 (ip), vehicle: suspension in saline) was 109 % of control. The T/C (dose: 300.0 mg/kg/injection, schedule: Q04DX003 (ip), vehicle: saline) was 100 % of control and the T/C (dose: 300.0 mg/kg/injection, schedule: Q04DX003 (ip), vehicle: suspension in saline) was 104 % of control.

In the case of `COc1ccc2c3c(ccc2c1)CC1CCCN1C3` (centres undefined), the T/C (dose: 50.0 mg/kg/injection, schedule: Q01DX005 (ip), vehicle: other) is reported as 116 % of control and the T/C (dose: 100.0 mg/kg/injection, schedule: Q01DX005 (ip), vehicle: other) is reported as 104 % of control.

For `CCCN1C(=O)CC(=O)N(CCC)P1(=O)OCC`, the T/C (dose: 100.0 mg/kg/injection, schedule: Q04DX002 (ip), vehicle: saline) was 101 % of control, the T/C (dose: 200.0 mg/kg/injection, schedule: Q04DX002 (ip), vehicle: saline) was 108 % of control and the T/C (dose: 400.0 mg/kg/injection, schedule: Q04DX002 (ip), vehicle: saline) was 101 % of control.

In the case of `O=C(O)c1cc(Cl)nnc1Cl`, the T/C [1] is reported as 109 % of control, the T/C [2] is reported as 100 % of control and the T/C (dose: 200.0 mg/kg/injection, schedule: Q01DX005 (ip), vehicle: saline) is reported as 104 % of control.

`c1ccc(N=NC2=NN(c3ccccc3)CS2)cc1` was tested, and the T/C (dose: 25.0 mg/kg/injection, schedule: Q01DX009 (ip), vehicle: saline with Tween-80) was 105 % of control and 106 % of control, the T/C (dose: 50.0 mg/kg/injection, schedule: Q01DX009 (ip), vehicle: saline with Tween-80) was 101 % of control and 102 % of control and the T/C (dose: 100.0 mg/kg/injection, schedule: Q01DX009 (ip), vehicle: saline with Tween-80) was 101 % of control and 102 % of control. The T/C (dose: 200.0 mg/kg/injection, schedule: Q01DX009 (ip), vehicle: saline with Tween-80) was 101 % of control and 106 % of control.

For `Cc1cc(C(=O)NN)no1`, the T/C [3] was 99 % of control and the T/C [4] was 100 % of control.

For `O=S(=O)(O)O.[NH2-].[NH2-].[Pt+2]`, the T/C (dose: 1.56 mg/kg/injection, schedule: Q04DX002 (ip), vehicle: saline with Tween-80) was 112 % of control, the T/C (dose: 6.25 mg/kg/injection, schedule: Q04DX002 (ip), vehicle: saline with Tween-80) was 162 % of control and the T/C (dose: 12.5 mg/kg/injection, schedule: Q04DX002 (ip), vehicle: saline with Tween-80) was 156 % of control.

With `O=C1N[C@@H](Cc2ccccc2)C(=O)N2CSC[C@H]12` the T/C (dose: 100.0 mg/kg/injection, schedule: Q01DX001 (ip), vehicle: Klucel (hydroxypropylcellulose) (HPC)) was 99 % of control, the T/C (dose: 200.0 mg/kg/injection, schedule: Q01DX001 (ip), vehicle: Klucel (hydroxypropylcellulose) (HPC)) was 102 % of control and the T/C (dose: 400.0 mg/kg/injection, schedule: Q01DX001 (ip), vehicle: Klucel (hydroxypropylcellulose) (HPC)) was 102 % of control.

With `O=C(Nc1ccc(Cl)cc1)Nc1nnc2nc(C(C(=O)c3ccc(O)cc3O)c3nc4nnc(NC(=O)Nc5ccc(Cl)cc5)n4[nH]c3=O)c(=O)[nH]n12` the T/C [5] was 103 % of control and the T/C [6] was 95 % of control.

With `O=C1N(C2CCCCC2)C(/C=C/c2ccccc2)C1(c1ccccc1)c1ccccc1` (centres undefined) the T/C (dose: 25.0 mg/kg/injection, schedule: Q01DX005 (ip), vehicle: Klucel (hydroxypropylcellulose) (HPC)) was 96 % of control, the T/C [7] was 94 % of control and the T/C [8] was 88 % of control. For the same compound, the T/C [9] was 89 % of control and 91 % of control.

`CCC[CH2][Sn]1([CH2]CCC)[O]c2ccccc2[O]1` was tested, and the T/C (dose: 0.39 mg/kg/injection, schedule: Q01DX005 (ip), vehicle: saline with Tween-80) was 103 % of control, the T/C (dose: 0.78 mg/kg/injection, schedule: Q01DX005 (ip), vehicle: saline with Tween-80) was 106 % of control and the T/C (dose: 1.56 mg/kg/injection, schedule: Q01DX005 (ip), vehicle: saline with Tween-80) was 109 % of control and 124 % of control. The T/C (dose: 3.12 mg/kg/injection, schedule: Q01DX005 (ip), vehicle: Klucel (hydroxypropylcellulose) (HPC)) was 100 % of control, the T/C (dose: 3.12 mg/kg/injection, schedule: Q01DX005 (ip), vehicle: saline with Tween-80) was 123 % of control and the T/C (dose: 6.25 mg/kg/injection, schedule: Q01DX005 (ip), vehicle: Klucel (hydroxypropylcellulose) (HPC)) was 105 % of control. For the same compound, the T/C (dose: 12.5 mg/kg/injection, schedule: Q01DX005 (ip), vehicle: Klucel (hydroxypropylcellulose) (HPC)) was 107 % of control.

With `CCOc1c(N=Nc2cccc([N+](=O)[O-])c2)c(C)nn1C(=S)S` the T/C (dose: 60.0 mg/kg/injection, schedule: Q01DX005 (ip), vehicle: Klucel + Tween-80) was 97 % of control, the T/C (dose: 120.0 mg/kg/injection, schedule: Q01DX005 (ip), vehicle: Klucel + Tween-80) was 97 % of control and the T/C (dose: 240.0 mg/kg/injection, schedule: Q01DX005 (ip), vehicle: Klucel + Tween-80) was 98 % of control.

In the case of `Cc1cccc2nnc(CCCc3nnc4cccc(C)n34)n12`, the T/C (dose: 100.0 mg/kg/injection, schedule: Q04DX003 (ip), vehicle: saline with Tween-80) is reported as 98 % of control, the T/C (dose: 200.0 mg/kg/injection, schedule: Q04DX003 (ip), vehicle: saline with Tween-80) is reported as 97 % of control and the T/C (dose: 400.0 mg/kg/injection, schedule: Q04DX003 (ip), vehicle: saline with Tween-80) is reported as 96 % of control.

In the case of `N#Cc1ncn(Cc2ccccc2)c1N`, the T/C (dose: 15.0 mg/kg/injection, schedule: Q01DX005 (ip), vehicle: saline with Tween-80) is reported as 95 % of control, the T/C (dose: 30.0 mg/kg/injection, schedule: Q01DX005 (ip), vehicle: saline with Tween-80) is reported as 101 % of control and the T/C [5] is reported as 105 % of control and 109 % of control.

With `CCOC(=O)c1cnc(SC)n(-c2ccc(OC)cc2)c1=O` the T/C [7] was 107 % of control, the T/C [8] was 92 % of control and the T/C [9] was 101 % of control.

With `Cc1c(Cl)cccc1NC(=O)NNC(=O)c1ccncc1` the T/C (dose: 50.0 mg/kg/injection, schedule: Q01DX009 (ip), vehicle: Klucel (hydroxypropylcellulose) (HPC)) was 90 % of control, the T/C (dose: 100.0 mg/kg/injection, schedule: Q01DX009 (ip), vehicle: Klucel (hydroxypropylcellulose) (HPC)) was 88 % of control and the T/C (dose: 200.0 mg/kg/injection, schedule: Q01DX009 (ip), vehicle: Klucel (hydroxypropylcellulose) (HPC)) was 88 % of control.

For `Cc1ccc2c(c1)SP1(c3ccccc3)(Oc3c(c4ccccc4c4ccccc34)O1)S2`, the T/C [5] was 118 % of control, the T/C [6] was 110 % of control and the T/C (dose: 240.0 mg/kg/injection, schedule: Q01DX005 (ip), vehicle: saline with Tween-80) was 114 % of control.

`COC1/C=C/OC2(C)Oc3c(C)c(O)c4c(O)c(c(CNCc5ccccc5)c(O)c4c3C2=O)NC(=O)/C(C)=C\C=C\C(C)C(O)C(C)C(O)C(C)C(OC(C)=O)C1C` (centres undefined) was tested, and the T/C (dose: 25.0 mg/kg/injection, schedule: Q01DX009 (ip), vehicle: other) was 92 % of control, the T/C (dose: 50.0 mg/kg/injection, schedule: Q01DX009 (ip), vehicle: other) was 91 % of control and the T/C (dose: 100.0 mg/kg/injection, schedule: Q01DX009 (ip), vehicle: other) was 88 % of control. For the same compound, the T/C (dose: 400.0 mg/kg/injection, schedule: Q01DX009 (ip), vehicle: other) was 89 % of control.

For `COc1ccc2c(c1)c1ccnc3ccc(=O)n2c31`, the T/C (dose: 0.83 mg/kg/injection, schedule: Q01DX009 (ip), vehicle: saline with Tween-80) was 98 % of control, the T/C (dose: 1.65 mg/kg/injection, schedule: Q01DX009 (ip), vehicle: saline with Tween-80) was 109 % of control and the T/C (dose: 3.29 mg/kg/injection, schedule: Q01DX009 (ip), vehicle: saline with Tween-80) was 109 % of control. For the same compound, the T/C (dose: 6.58 mg/kg/injection, schedule: Q01DX009 (ip), vehicle: saline with Tween-80) was 109 % of control.

For `CCCCCCC(/C=C/c1ccc(Cl)c(Cl)c1)=N\NC(N)=S`, the T/C [3] was 105 % of control, the T/C [4] was 106 % of control and the T/C [10] was 107 % of control.

In the case of `NCCc1ccccc1`, the T/C [3] is reported as 104 % of control and the T/C [4] is reported as 86 % of control.

`N#CC1(OC2OC(CO)C(O)C(O)C2O)C=CC(O)C1` (centres undefined) was tested, and the T/C (dose: 25.0 mg/kg/injection, schedule: Q01DX005 (ip), vehicle: saline) was 91 % of control, the T/C [1] was 94 % of control and the T/C [2] was 106 % of control.

For `CNC(C)C(O)c1ccc(O)cc1` (centres undefined), the T/C [3] was 102 % of control and 92 % of control, the T/C [4] was 102 % of control and 105 % of control and the T/C [10] was 102 % of control and 108 % of control. For the same compound, the T/C (dose: 400.0 mg/kg/injection, schedule: Q01DX009 (ip), vehicle: saline) was 102 % of control and 98 % of control.
